Measured values: ChEMBL document CHEMBL4411274, “Recent advances of tetrazole derivatives as potential anti-tubercular and anti-malarial agents” (Eur J Med Chem, 2019)
pIC50: −log10 of the molar value. In brackets after ≈: the same amount, converted by molar mass.

Experiments:
[1] = test system: Mycobacterium tuberculosis; assay: Antibacterial activity against Mycobacterium tuberculosis CNCTC My 331/88; type: functional
Mycobacterium kansasii [2] = assay: Antibacterial activity against Mycobacterium kansasii CNCTC My 235/80; type: functional
Mycobacterium avium = assay: Antibacterial activity against Mycobacterium avium CNCTC My 330/88; type: functional
Mycobacterium kansasii [3] = assay: Antibacterial activity against Mycobacterium kansasii isolate 6509/96; type: functional
CHO-K1 = assay: Cytotoxicity against CHOK1 cells after 24 hrs by MTT assay; type: cell-based; conditions: Cricetulus griseus, CHO-K1, 24 h
[4] = test system: Mycobacterium tuberculosis; assay: Antibacterial activity against Mycobacterium tuberculosis H37Rv by MABA; type: functional
Plasmodium falciparum [5] = assay: Antimalarial activity against ring-stage multidrug-resistant Plasmodium falciparum Dd2 preincubated for 6 hrs followed by compound wash and measured after 66 hrs by Giemsa-staining based light microscopic analysis; type: functional, organism-based
Plasmodium falciparum [6] = assay: Antimalarial activity against ring-stage chloroquine-susceptible Plasmodium falciparum 3D7 preincubated for 6 hrs followed by compound wash and measured after 66 hrs by Giemsa-staining based light microscopic analysis; type: functional, organism-based
[7] = test system: Mycobacterium tuberculosis; assay: Antibacterial activity against Mycobacterium tuberculosis H37Rv by resazurin dye-based assay; type: functional
Falcipain 2 = molecular target: T1, Falcipain 2 (Plasmodium falciparum, UniProt Q9N6S8); assay: Inhibition of Plasmodium falciparum falcipain-2 preincubated for 30 mins followed by Z-Leu-Arg-AMC substrate addition and measured up to 15 mins by spectrofluorometric analysis
T1 sequence (Q9N6S8 whole entry): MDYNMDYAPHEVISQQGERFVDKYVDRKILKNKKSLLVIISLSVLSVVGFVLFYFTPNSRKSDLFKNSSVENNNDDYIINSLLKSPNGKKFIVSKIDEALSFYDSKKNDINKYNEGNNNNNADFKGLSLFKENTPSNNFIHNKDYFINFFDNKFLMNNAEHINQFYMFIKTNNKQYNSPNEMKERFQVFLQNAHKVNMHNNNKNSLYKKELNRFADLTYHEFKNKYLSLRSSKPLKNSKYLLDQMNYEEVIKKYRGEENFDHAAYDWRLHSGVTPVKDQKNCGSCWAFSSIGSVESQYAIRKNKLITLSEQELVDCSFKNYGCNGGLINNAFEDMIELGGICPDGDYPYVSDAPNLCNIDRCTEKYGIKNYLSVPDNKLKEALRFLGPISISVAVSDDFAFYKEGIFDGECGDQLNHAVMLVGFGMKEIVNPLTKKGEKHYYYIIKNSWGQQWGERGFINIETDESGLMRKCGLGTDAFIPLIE

[8] = molecular target: T2, Cysteine protease falcipain-3 (Plasmodium falciparum, UniProt Q9NAW4); assay: Inhibition of Plasmodium falciparum falcipain-3 preincubated for 30 mins followed by Z-Leu-Arg-AMC substrate addition and measured up to 15 mins by spectrofluorometric analysis
T2 sequence (Q9NAW4 whole entry): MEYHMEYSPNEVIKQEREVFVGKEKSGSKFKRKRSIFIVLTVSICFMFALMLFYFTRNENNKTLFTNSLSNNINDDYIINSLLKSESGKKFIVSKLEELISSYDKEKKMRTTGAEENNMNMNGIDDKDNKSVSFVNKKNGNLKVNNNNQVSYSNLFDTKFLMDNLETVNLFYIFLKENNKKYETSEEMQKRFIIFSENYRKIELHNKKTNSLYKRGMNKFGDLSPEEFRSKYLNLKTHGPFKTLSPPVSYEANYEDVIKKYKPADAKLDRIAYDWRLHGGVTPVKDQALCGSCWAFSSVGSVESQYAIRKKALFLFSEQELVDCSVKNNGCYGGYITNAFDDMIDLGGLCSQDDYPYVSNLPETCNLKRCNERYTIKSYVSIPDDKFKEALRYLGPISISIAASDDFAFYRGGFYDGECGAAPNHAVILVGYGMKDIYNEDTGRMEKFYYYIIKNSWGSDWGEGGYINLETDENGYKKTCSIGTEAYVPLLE

Plasmodium falciparum [9] = assay: Antimalarial activity against Plasmodium falciparum K2 infected in human erythrocytes assessed as parasitemia after 48 hrs by YOYO-1 staining-based flow cytometric analysis; type: functional, organism-based; conditions: K2, 48 h

Clc1ccc(-n2nnnc2SCc2ccccc2)cc1
MIC [1]: 8 to 250 µg/mL (≈ 26.4 to 826 µM)
MIC (Mycobacterium kansasii [2]): 8 to 250 µg/mL (≈ 26.4 to 826 µM)
MIC (Mycobacterium avium): 8 to 250 µg/mL (≈ 26.4 to 826 µM)
MIC (Mycobacterium kansasii [3]): 8 to 250 µg/mL (≈ 26.4 to 826 µM)

Cc1ccc(-n2nnnc2S)cc1
MIC [1]: 250 to 500 µg/mL (≈ 1300 to 2600 µM)
MIC (Mycobacterium kansasii [2]): 250 to 500 µg/mL (≈ 1300 to 2600 µM)
MIC (Mycobacterium avium): 250 to 500 µg/mL (≈ 1300 to 2600 µM)
MIC (Mycobacterium kansasii [3]): 250 to 500 µg/mL (≈ 1300 to 2600 µM)

C[C@]12CC[C@@H]3c4ccc(OCCCCCCCSc5nnnn5-c5ccccc5)cc4CC[C@H]3[C@@H]1CCC2=O
MIC [1]: ≥ 500 µg/mL
MIC (Mycobacterium kansasii [2]): ≥ 500 µg/mL
MIC (Mycobacterium avium): ≥ 500 µg/mL
MIC (Mycobacterium kansasii [3]): ≥ 500 µg/mL

COc1cc(-c2nnnn2S(=O)(=O)c2ccc(OC(F)(F)F)cc2)ccc1OCC(O)(Cn1cncn1)c1ccc(Cl)cc1Cl (stereo not drawn)
IC50 (CHO-K1): > 150 µg/mL
MIC [4]: 1.56 to 12.5 µg/mL (≈ 2.27 to 18.2 µM)

c1ccc(CSc2nnnn2-c2ccccc2)cc1
MIC [1]: 8 to 250 µg/mL (≈ 29.8 to 932 µM)
MIC (Mycobacterium kansasii [2]): 8 to 250 µg/mL (≈ 29.8 to 932 µM)
MIC (Mycobacterium avium): 8 to 250 µg/mL (≈ 29.8 to 932 µM)
MIC (Mycobacterium kansasii [3]): 8 to 250 µg/mL (≈ 29.8 to 932 µM)

C[C@H]1[C@@H](O)O[C@@H]2O[C@@]3(C)CC[C@H]4[C@H](C)CC[C@@H]1[C@@]24OO3 [ARTENIMOL]
pIC50 (Plasmodium falciparum [5]): 8.38
pIC50 (Plasmodium falciparum [6]): 8.33

COc1cc(-c2nnnn2S(=O)(=O)c2ccc(C)cc2)ccc1OCC(O)(Cn1cncn1)c1ccc(F)cc1F (stereo not drawn)
IC50 (CHO-K1): > 150 µg/mL

C[C@H]1[C@H](OC(=O)CCC(=O)O)O[C@@H]2O[C@@]3(C)CC[C@H]4[C@H](C)CC[C@@H]1[C@@]24OO3 [ARTESUNATE]
pIC50 (Plasmodium falciparum [5]): 8.34
pIC50 (Plasmodium falciparum [6]): 8.29

COc1cc(-c2nnnn2S(=O)(=O)c2ccc(F)cc2)ccc1OCC(O)(Cn1cncn1)c1ccc(F)cc1F (stereo not drawn)
IC50 (CHO-K1): > 150 µg/mL
MIC [4]: 6.25 µg/mL (≈ 10.6 µM)

O=C(Cn1nnnc1-c1ccccc1)NN1C(=O)C(Cl)C1c1ccc(Br)cc1 (stereo not drawn)
MIC [7]: > 6.25 µg/mL

Sc1nnnn1-c1ccc(Cl)cc1
MIC [1]: 250 to 500 µg/mL (≈ 1180 to 2350 µM)
MIC (Mycobacterium kansasii [2]): 250 to 500 µg/mL (≈ 1180 to 2350 µM)
MIC (Mycobacterium avium): 250 to 500 µg/mL (≈ 1180 to 2350 µM)
MIC (Mycobacterium kansasii [3]): 250 to 500 µg/mL (≈ 1180 to 2350 µM)

COc1cc(-c2nnnn2S(=O)(=O)c2ccccc2)ccc1OCC(O)(Cn1cncn1)c1ccc(F)cc1F (stereo not drawn)
IC50 (CHO-K1): > 150 µg/mL
MIC [4]: 3.12 µg/mL (≈ 5.48 µM)

Cc1cc(NC(=O)Cn2nnc(-c3ccc(N)cc3)n2)no1
pIC50 (Falcipain 2): 4.36 to 5.18
pIC50 [8]: 4.36 to 5.18
pIC50 (Plasmodium falciparum [9]): < 5.00

CN(C)c1ccc(C2C(Cl)C(=O)N2NC(=O)Cn2nnnc2-c2ccccc2)cc1 (stereo not drawn)
MIC [7]: 0.156 µg/mL (≈ 0.366 µM)

COc1ccc(C2C(Cl)C(=O)N2NC(=O)Cn2nnnc2-c2ccccc2)cc1 (stereo not drawn)
MIC [7]: 0.156 µg/mL (≈ 0.378 µM)

COc1ccc(NC(=O)Cn2nnc(-c3ccccc3NS(=O)(=O)c3ccc(NC(C)=O)cc3)n2)cc1
pIC50 (Falcipain 2): 4.36 to 5.18
pIC50 [8]: 4.36 to 5.18
pIC50 (Plasmodium falciparum [9]): < 5.00

Sc1nnnn1-c1ccc(Cl)c(Cl)c1
MIC [1]: 250 to 500 µg/mL (≈ 1010 to 2020 µM)
MIC (Mycobacterium kansasii [2]): 250 to 500 µg/mL (≈ 1010 to 2020 µM)
MIC (Mycobacterium avium): 250 to 500 µg/mL (≈ 1010 to 2020 µM)
MIC (Mycobacterium kansasii [3]): 250 to 500 µg/mL (≈ 1010 to 2020 µM)

COc1cc(-c2nnnn2S(=O)(=O)c2ccc(Br)cc2)ccc1OCC(O)(Cn1cncn1)c1ccc(Cl)cc1Cl (stereo not drawn)
IC50 (CHO-K1): > 150 µg/mL
MIC [4]: 1.56 to 12.5 µg/mL (≈ 2.29 to 18.3 µM)

COc1ccc(C(=O)Cn2nnc(-c3ccccc3NC(=O)c3ccncc3)n2)cc1
pIC50 (Falcipain 2): 4.36 to 5.18
pIC50 [8]: 4.36 to 5.18
pIC50 (Plasmodium falciparum [9]): < 5.00

COc1cc(-c2nnnn2S(=O)(=O)c2ccc(C(C)(C)C)cc2)ccc1OCC(O)(Cn1cncn1)c1ccc(Cl)cc1Cl (stereo not drawn)
IC50 (CHO-K1): > 150 µg/mL
MIC [4]: 1.56 to 12.5 µg/mL (≈ 2.37 to 19 µM)

COc1cc(-c2nnnn2S(=O)(=O)c2ccc(C(C)(C)C)cc2)ccc1OCC(O)(Cn1cncn1)c1ccc(F)cc1F (stereo not drawn)
IC50 (CHO-K1): > 150 µg/mL
MIC [4]: 1.56 µg/mL (≈ 2.49 µM)

COc1cc(-c2nnnn2S(=O)(=O)c2ccc([N+](=O)[O-])cc2)ccc1OCC(O)(Cn1cncn1)c1ccc(F)cc1F (stereo not drawn)
IC50 (CHO-K1): > 150 µg/mL
MIC [4]: 12.5 µg/mL (≈ 20.3 µM)

O=C(Cn1nnnc1-c1ccccc1)NN1C(=O)C(Cl)C1c1ccccc1 (stereo not drawn)
MIC [7]: > 6.25 µg/mL

c1ccc(-n2nnnc2OCC2CCC3(CC2)OOC2(O3)C3CC4CC(C3)CC2C4)cc1 (stereo not drawn)
pIC50 (Plasmodium falciparum [5]): 7.61 to 8.68
pIC50 (Plasmodium falciparum [6]): 7.61 to 8.68

COc1ccc(S(=O)(=O)n2nnnc2-c2ccc(OCC(O)(Cn3cncn3)c3ccc(Cl)cc3Cl)c(OC)c2)cc1 (stereo not drawn)
IC50 (CHO-K1): > 150 µg/mL
MIC [4]: 1.56 to 12.5 µg/mL (≈ 2.47 to 19.8 µM)

Cc1ccc(-n2nnnc2SCc2ccccc2)cc1
MIC [1]: 8 to 250 µg/mL (≈ 28.3 to 885 µM)
MIC (Mycobacterium kansasii [2]): 8 to 250 µg/mL (≈ 28.3 to 885 µM)
MIC (Mycobacterium avium): 8 to 250 µg/mL (≈ 28.3 to 885 µM)
MIC (Mycobacterium kansasii [3]): 8 to 250 µg/mL (≈ 28.3 to 885 µM)

C[C@]12CC[C@@H]3c4ccc(OCCCCCCCSc5nnnn5-c5ccc(Cl)c(Cl)c5)cc4CC[C@H]3[C@@H]1CCC2=O
MIC [1]: ≥ 500 µg/mL
MIC (Mycobacterium kansasii [2]): ≥ 500 µg/mL
MIC (Mycobacterium avium): ≥ 500 µg/mL
MIC (Mycobacterium kansasii [3]): ≥ 500 µg/mL
